Test: Transport of supinoxin in Caco-2 cells (bidirectional permeability)
Type: in vitro ADME
Settings: human, supinoxin 1 µM
Procedure: The Caco-2 intestinal epithelial cell line (ATCC® HTB-37™) purchased from American Type Culture Collection (ATCC, Manassas, VA, USA) was cultured and maintained in Dulbecco’s modified Eagle medium (DMEM) containing 10% fetal bovine serum, 100 U/mL penicillin, and 0.1 mg/mL streptomycin under humidified atmosphere of air containing 5% CO2 at 37 °C. Caco-2 cells were seeded at a density of 6 × 10^4 cells/cm^2 onto polyethylene membranes of transwell plates (Corning Costar, Cambridge, MA, USA). The medium was replaced on alternate days after seeding, and cell monolayers were used for the transport assay after approximately 21 days of culture. Trans-epithelial electrical resistance (TEER) values of the Caco-2 monolayers were measured with an EVOM epithelial tissue voltmeter (World Precision Instruments, Sarasota, FL, USA), and cells with TEER greater than 300 Ω were used for the experiments. Cell monolayers were first rinsed three times with transport buffer (Hank’s balanced salt solution supplemented with 10 mM HEPES) and preincubated for 30 min at 37 °C. To measure the bidirectional transport of the compound, a transport buffer containing 1 µM supinoxin was added to the respective donor compartments (the apical and basolateral sides for absorptive and secretory transport assays, respectively). Samples (200 µL) were collected at 30, 60, 90, and 120 min, and an identical volume of fresh buffer was replenished. The samples were then subjected to LC–MS/MS analysis and concentrations of the samples were determined. After the final sampling from both compartments, we measured the TEER of the monolayers to ensure no possible adverse effects induced by the experimental procedures and then estimated the apparent permeability coefficient of supinoxin from the compound’s time-dependent accumulation (dQ/dt) in the receiver compartments using the following equation: Papp = dQ/dt × 1/(A × C0)(1) where dQ/dt is the rate of transport, A is the surface area of the filter, and C0 is the initial concentration in the donor chamber.

Papp A→B at 120 min, 1 µM (Caco-2, Caco-2 cell monolayers, read-out: apical to basolateral apparent permeability coefficient): 15.5 ± 0.8 ×10⁻⁶ cm/s
Papp B→A at 120 min, 1 µM (Caco-2 cell monolayers, read-out: basolateral to apical apparent permeability coefficient): 15.7 ± 0.8 ×10⁻⁶ cm/s
SMILES: COCCc1ccc(OCC(O)CNC(C)C)cc1 (centres unmarked) [metoprolol, reference compound]
